Positions count from the first letter of the chain named. Where a SMILES comes first, the peptide text is derived from it. Bridges are numbered along the chain shown (N, C = ends).
Columns and labels:
Test in all cases: Heterologous whole cell competition binding
Conditions in all cases: heterologous competition of 125I-sCT(8-32), whole cells, mean ± S.E.M., SEM
hCTR K366A = biological target: T1, hCTR K366A (Homo sapiens, UniProt P30988, K366A)
T1 construct: c-Myc (N); expressed in transfected cells
T1 sequence (P30988 25-474 K366A): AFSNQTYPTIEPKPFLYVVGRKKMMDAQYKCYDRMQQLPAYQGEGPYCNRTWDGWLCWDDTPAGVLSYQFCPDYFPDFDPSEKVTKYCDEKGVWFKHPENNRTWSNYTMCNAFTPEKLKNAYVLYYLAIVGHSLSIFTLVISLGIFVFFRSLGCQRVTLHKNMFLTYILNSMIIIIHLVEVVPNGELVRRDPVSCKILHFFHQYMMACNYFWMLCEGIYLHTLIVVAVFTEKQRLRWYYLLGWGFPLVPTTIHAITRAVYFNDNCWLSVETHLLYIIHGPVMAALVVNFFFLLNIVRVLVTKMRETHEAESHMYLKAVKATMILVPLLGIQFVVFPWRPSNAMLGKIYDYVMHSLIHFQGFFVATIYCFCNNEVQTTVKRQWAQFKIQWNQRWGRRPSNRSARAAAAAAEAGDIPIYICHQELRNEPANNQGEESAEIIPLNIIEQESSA
Procedure, shortened: (§1)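 Intact cells carrying the mutant calcitonin receptor are co-incubated overnight with labelled tracer and unlabelled competitor. Non-bound ligand is then washed away and retained radioactivity measured by gamma counting; competition data are converted to pKi using Cheng-Prusoff.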

hCTR S364A = biological target: T2, hCTR S364A (Homo sapiens, UniProt P30988, S364A)
T2 construct: c-Myc (N); expressed in transfected cells
T2 sequence (P30988 25-474 S364A): T1 sequence (P30988 25-474 K366A) with S340A, A342K
Procedure, shortened: as §1

hCTR WT = biological target: T3, hCTR WT (Homo sapiens, UniProt P30988)
T3 construct: expressed in transfected cells
T3 sequence (P30988 25-474): T1 sequence (P30988 25-474 K366A) with A342K
Procedure, shortened: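 Steps: overnight co-incubation of cells, tracer and test ligand; washout of unbound label; gamma counting; Cheng-Prusoff conversion to pKi.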

hCTR Y374A = biological target: T4, hCTR Y374A (Homo sapiens, UniProt P30988, Y374A)
T4 construct: c-Myc (N); expressed in transfected cells
T4 sequence (P30988 25-474 Y374A): T1 sequence (P30988 25-474 K366A) with A342K, Y350A
Procedure, shortened: as §1

Ki (hCTR K366A): 11 nM
Ki (hCTR S364A): 5.37 nM
Ki (hCTR WT): 5.37 nM
Ki (hCTR Y374A): 5.89 nM
SMILES: CSCC[C@H](NC(=O)CNC(=O)[C@H](CO)NC(=O)[C@H](Cc1ccccc1)NC(=O)[C@H](CCCNC(=N)N)NC(=O)[C@H](Cc1c[nH]cn1)NC(=O)[C@H](Cc1ccccc1)NC(=O)[C@H](CC(N)=O)NC(=O)[C@H](CC(N)=O)NC(=O)[C@H](CC(C)C)NC(=O)[C@H](CC(N)=O)NC(=O)[C@H](CCCNC(=N)N)NC(=O)[C@H](Cc1c[nH]c2ccccc12)NC(=O)[C@H](Cc1ccc(O)cc1)NC(=O)[C@H](C)NC(=O)[C@H](CO)NC(=O)[C@H](CC(C)C)NC(=O)[C@@H](NC(=O)[C@@H]1CSSC[C@H](N)C(=O)N[C@@H](CO)C(=O)N[C@@H](CC(N)=O)C(=O)N[C@@H](CC(C)C)C(=O)N[C@@H](CO)C(=O)N[C@@H]([C@@H](C)O)C(=O)N1)C(C)C)C(=O)NCC(=O)N[C@@H](Cc1ccccc1)C(=O)NCC(=O)N1CCC[C@H]1C(=O)N[C@@H](CCC(=O)O)C(=O)N[C@H](C(=O)N1CCC[C@H]1C(N)=O)[C@@H](C)O [pCT] (H-CSNLSTCVLSAYWRNLNNFHRFSGMGFGPETP-NH2; disulfide 1-7)

Reference: paper PMC5908784, “Extracellular loops 2 and 3 of the calcitonin receptor selectively modify agonist binding and efficacy” (Biochemical Pharmacology, 2018)
